Values quoted from earlier work as cited in patent US8637073B2 (priority 2003, dated 2014).

Conditions: maintenance of opioid-dependent pregnant women; Eder et al. 2001

## CCC(=O)C(CC(C)N(C)C)(c1ccccc1)c1ccccc1 (stereo not shown) [methadone]
  neonates in which neonatal abstinence syndrome (NAS) is observed: 60-80%
